In patent US9862730B2, “Imidazothiadiazole derivatives as protease activated receptor 4 (PAR4) inhibitors for treating platelet aggregation” (BRISTOL-MYERS SQUIBB COMPANY, priority 2012, dated 2018):

Molecular target: T1, PAR4 (Homo sapiens (Human), UniProt Q96RI0)
Test: Gamma thrombin induced platelet aggregation assay in PRP (PRP assay)
Format: cell-based
Conditions: not given
Description: The compounds of the current invention can be tested in vitro for their ability to inhibit platelet aggregation induced by gamma-thrombin as shown in Example C. Gamma-thrombin, a proteolytic product of alpha-thrombin which no longer interacts with PAR1, selectively cleaves and activates PAR4 (Soslau, G. et al., “Unique pathway of thrombin-induced platelet aggregation mediated by glycoprotein Ib”, J. Biol. Chem., 276:21173-21183 (2001)). Platelet aggregation can be monitored in a 96-well microplate aggregation assay format or using standard platelet aggregometer. The aggregation assay can also be employed to test the selectivity of the compound for inhibiting platelet aggregation induced by PAR4 agonist peptides, PAR1 agonist peptide, ADP, or thromboxane analogue U46619.
The platelet rich plasma was isolated by centrifugation at 170 g for 14 minutes.
The ability of the compounds of the current invention to inhibit platelet aggregation induced by gamma-thrombin was tested in a 96-well microplate aggregation assay format. Briefly, PRP or washed platelet suspension (100 μl) was pre-incubated for 5 minutes at room temperature with varying concentrations of compounds. Aggregation was initiated by ˜10-50 nM gamma thrombin (Haematologic Technologies, Essex Junction, Vt.), which was titrated daily to achieve 80% platelet aggregation. Refludan at 1 U/mL (Berlex, Montville, N.J.) was added to the gamma thrombin sample to prevent PAR1 activation induced by residual alpha-thrombin contamination. The plate was then placed into a 37° C. Molecular Devices (Sunnyvale, Calif.) SPECTRAMAX® Plus Plate Reader. […] Data was collected with SOFTMAX® 4.71 software. The plate also included an untreated control sample which served as ODmax, while buffer containing no platelets was the ODmin. Platelet aggregation was determined by subtracting the ODmax from the ODmin for the 100% aggregation value. In experimental samples, the observed transmission was subtracted from the minimum value and then compared to the 100% aggregation value to determine the percentage aggregation. IC50 values are determined using Excel Fit software.
As indicated above, the PRP assay, an in vitro assay, measures the PAR4 antagonist activity of compounds tested as described in Example C.

T1 sequence (Q96RI0 18-385): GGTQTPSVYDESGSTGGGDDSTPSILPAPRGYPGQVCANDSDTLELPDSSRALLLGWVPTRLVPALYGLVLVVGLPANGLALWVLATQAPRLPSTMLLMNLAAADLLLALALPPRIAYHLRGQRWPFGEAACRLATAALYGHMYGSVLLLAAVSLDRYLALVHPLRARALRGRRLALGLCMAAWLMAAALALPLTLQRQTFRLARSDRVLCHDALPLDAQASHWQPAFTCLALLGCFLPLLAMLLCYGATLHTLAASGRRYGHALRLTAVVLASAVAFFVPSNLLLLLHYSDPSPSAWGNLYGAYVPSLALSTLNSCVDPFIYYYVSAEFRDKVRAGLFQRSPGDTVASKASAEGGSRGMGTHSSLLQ

| Structure (SMILES) | IC50 [nM] |
| --- | --- |
| COc1cc(OCc2cccc(OCc3cccc(F)c3)c2)c2cc(-c3cn4nc(OC)sc4n3)oc2c1 [Example 327] | 37.9 |
| CCOc1nn2cc(-c3cc4ccccc4o3)nc2s1 [Example 26] | > 30000 |
| CSc1nn2cc(-c3cc4ccccc4s3)nc2s1 [Example 17] | > 30000 |

Molecular target: T1, PAR4
Test: FLIPR assay in PAR4-expressing HEK293 cells (PAR4 antagonist activity, calcium mobilization)
Format: cell-based
Conditions: FLIPR assay as described in Example A
In short: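 HEK293 cells stably expressing human PAR4 (also endogenous PAR1) in HBSS/10 mM HEPES, 0.67% DMSO final. Compound added and read for agonist activity, then 30 min room temperature before PAR4 agonist peptide; intracellular calcium mobilization monitored by FDSS/FLIPR.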

| Structure (SMILES) | IC50 [nM] |
| --- | --- |
| CSc1nn2cc(-c3nc4c(OC[C@@H]5CCCN5C(=O)OC(C)(C)C)cccc4o3)nc2s1 [Example 332, (S)-tert-Butyl 2-(((2-(2-(methylthio)imidazo[2,1-b][1,3,4]thiadiazol-6-yl)benzo[d]oxazol-4-yl)oxy)methyl)pyrrolidine-1-carboxylate] | 253 |
| CCc1nn2cc(-c3nc4ccc(Cl)cc4o3)nc2s1 [Example 40] | 122 |
| COc1cc(OCc2ccc(OC)c(OCc3ccccc3)c2)c2cc(-c3cn4nc(OC)sc4n3)oc2c1 [Example 351] | 2.23 |
| CSc1nn2cc(-c3cc4c(Cl)cc(Cl)cc4o3)nc2s1 [Example 287] | 8.19 |
| CCc1cccc2cc(-c3cn4nc(OC)sc4n3)oc12 [Example 92] | 13 |
| CSc1nn2cc(-c3cc4c(OCc5cccc(OCc6ccccc6)c5)cc(O)cc4o3)nc2s1 [Example 421] | 24.5 |
| CSc1nn2cc(-c3cc4c(C(=O)O)cccc4o3)nc2s1 [Example 219, 2-(2-(Methylthio)imidazo[2,1-b][1,3,4]thiadiazol-6-yl)benzofuran-4-carboxylic acid] | 1280 |
| CSc1nn2cc(-c3nc4cc(C)c(C)cc4o3)nc2s1 [Example 133] | 19.7 |
| CCOc1cccc2cc(-c3cn4nc(CC)sc4n3)oc12 [Example 13, 6-(7-Ethoxybenzofuran-2-yl)-2-ethylimidazo[2,1-b][1,3,4]thiadiazole] | 147 |
| CSc1nn2cc(-c3nc4ccc(F)cc4s3)nc2s1 [Example 191] | 30.7 |
| COc1cc(OCc2cccc(OCc3c(F)ccc(F)c3F)c2)c2cc(-c3cn4nc(OC)sc4n3)oc2c1 [Example 330] | 2.62 |
| COc1cc(OCc2cccc(OCc3ccc(F)c(C(F)(F)F)c3)c2)c2cc(-c3cn4nc(OC)sc4n3)oc2c1 [Example 315] | 8.88 |
| CCc1nn2cc(-c3nc4ccc(OCCCc5ccccc5)cc4o3)nc2s1 [Example 78] | 576 |
| COc1nn2cc(-c3cc4c(O)cccc4o3)nc2s1 [Example 211, 2-(2-Methoxyimidazo[2,1-b][1,3,4]thiadiazol-6-yl)benzofuran-4-ol] | 111 |
| CCc1nn2cc(-c3nc4cc(C)c(C)cc4o3)nc2s1 [Example 46] | 565 |
| COc1nn2cc(-c3nc4cc(C)ccc4o3)nc2s1 [Example 127] | 27.9 |
| COc1cc(OCc2ccccc2)c2nc(-c3cn4nc(SC)sc4n3)oc2c1 [Example 119, 4-(Benzyloxy)-6-methoxy-2-(2-(methylthio)imidazo[2,1-b][1,3,4]thiadiazol-6-yl)benzo[d]oxazole] | 10.6 |
| COc1cc(OCc2cccc(OCc3cccc(NC(=O)c4ccccc4)c3)c2)c2cc(-c3cn4nc(OC)sc4n3)oc2c1 [Example 397] | 2.3 |
| CCc1nn2cc(-c3nc4ccc(OCC(C)C)cc4o3)nc2s1 [Example 85] | 392 |

| Structure (SMILES) | IC50 [nM] |
| --- | --- |
| CSc1nn2cc(-c3nc4c(O)cccc4o3)nc2s1 [Example 147] | 78.3 |
| COc1ccc2oc(-c3cn4nc(SC)sc4n3)nc2c1 [Example 141] | 41 |
| CC(F)(F)c1nn2cc(-c3cc4c(F)cccc4o3)nc2s1 [Example 273] | 180 |
| CCc1nn2cc(-c3nc4ccc(OCc5cccc(Cl)c5)cc4o3)nc2s1 [Example 82] | 66 |
| CSc1nn2cc(-c3nc4c(OC(F)(F)F)cccc4s3)nc2s1 [Example 181, 2-(2-(Methylthio)imidazo[2,1-b][1,3,4]thiadiazol-6-yl)-4-(trifluoromethoxy)benzo[d]thiazole] | 419 |
| COc1cc(OCc2cccc(OCc3c(C)cc(C)cc3C)c2)c2cc(-c3cn4nc(OC)sc4n3)oc2c1 [Example 377] | 6.91 |
| COc1cc(OCc2cccc(OCc3ccc(C(C)C)cc3)c2)c2cc(-c3cn4nc(OC)sc4n3)oc2c1 [Example 313] | 2.11 |
| CCOc1cccc2oc(-c3cn4nc(SC)sc4n3)nc12 [Example 158] | 69.3 |
| CCc1nn2cc(-c3cc4cc(OC)ccc4o3)nc2s1 [Example 61] | 1650 |
| COc1nn2cc(-c3cc4c(Cl)cccc4o3)nc2s1 [Example 109] | 3.1 |
| COc1nn2cc(-c3cc4c(Cl)nccc4o3)nc2s1 [Example 223, 4-Chloro-2-(2-methoxyimidazo[2,1-b][1,3,4]thiadiazol-6-yl)furo[3,2-c]pyridine] | 21.6 |
| CSc1nn2cc(-c3nc4c(OC[C@@H]5CCCN5C(=O)[C@H](NC(=O)c5cccs5)c5ccccc5)cccc4o3)nc2s1 [Example 338, N—((R)-2-((S)-2-(((2-(2-(Methylthio)imidazo[2,1-b][1,3,4]thiadiazol-6-yl)benzo[d]oxazol-4-yl)oxy)methyl)pyrrolidin-1-yl)-2-oxo-1-phenylethyl)thiophene-2-carboxamide] | 1160 |
| Cc1ccc2oc(-c3cn4nc(C)sc4n3)nc2c1 [Example 112, 5-Methyl-2-(2-methylimidazo[2,1-b][1,3,4]thiadiazol-6-yl)benzo[d]oxazole] | 382 |
| COc1cc(OCc2cccc(OCc3ccc(F)cc3F)c2)c2cc(-c3cn4nc(OC)sc4n3)oc2c1 [Example 374] | 2.3 |
| CC(F)c1nn2cc(-c3cc4ccccc4o3)nc2s1 (centres unmarked) [Example 247] | 47.9 |
| CSc1nn2cc(-c3cc4c(OCc5cccc(OCc6ccccc6)c5)cc(OC(F)F)cc4o3)nc2s1 [Example 424] | 21.4 |
| COc1cc(OC(C)C)c2cc(-c3cn4nc(Br)sc4n3)oc2c1 [Example 299] | 78.8 |
| COc1nn2cc(-c3cc4c(OCc5cccc(OCc6ccccc6)c5)cccc4o3)nc2s1 [Example 413, 6-(4-((3-(Benzyloxy)benzyl)oxy)benzofuran-2-yl)-2-methoxyimidazo[2,1-b][1,3,4]thiadiazole] | 1.82 |
| COc1nn2cc(-c3cc4c(OCc5cccc(OCc6ccccc6)c5)cc(OC(F)F)cc4o3)nc2s1 [Example 416, 6-(4-((3-(Benzyloxy)benzyl)oxy)-6-(difluoromethoxy)benzofuran-2-yl)-2-methoxyimidazo[2,1-b][1,3,4]thiadiazole] | 1.09 |

| Structure (SMILES) | IC50 [nM] |
| --- | --- |
| COc1nn2cc(-c3nc4c(Cl)cccc4s3)nc2s1 [Example 196] | 791 |
| COc1cc2oc(-c3cn4nc(C(C)(F)F)sc4n3)cc2cc1Cl [Example 239] | 7.24 |
| COc1cc(OCc2cccc(OCc3ccccc3)c2)c2nc(-c3cn4nc(SC)sc4n3)oc2c1 [Example 403] | 0.86 |
| COc1ccc2c(C)c(-c3cn4nc(SC)sc4n3)oc2c1 [Example 106] | 13.9 |
| COc1ccc(OC)c2oc(-c3cn4nc(SC)sc4n3)cc12 [Example 105] | 11.4 |
| COc1nn2cc(-c3nc4cc(OC(F)(F)F)ccc4o3)nc2s1 [Example 140] | 68.9 |
| Cc1cc2oc(-c3cn4nc(Br)sc4n3)cc2cc1Cl [Example 277] | 512 |
| CSc1nn2cc(-c3nc4ccc(OCc5ccccc5Cl)cc4o3)nc2s1 [Example 151] | 673 |
| CC(F)c1nn2cc(-c3cc4c(OCc5ccccc5)cccc4o3)nc2s1 (centres unmarked) [Example 251] | 230 |
| CCCCOc1ccc2nc(-c3cn4nc(CC)sc4n3)oc2c1 [Example 79] | 801 |
| COc1nn2cc(-c3cc4cc(C)ccc4o3)nc2s1 [Example 95] | 6.89 |
| COc1cc(OCc2cccc(OCc3cccc(F)c3F)c2)c2cc(-c3cn4nc(OC)sc4n3)oc2c1 [Example 314] | 0.72 |
| COc1ccc2nc(-c3cn4nc(SC)sc4n3)oc2c1 [Example 116, 6-Methoxy-2-(2-(methylthio)imidazo[2,1-b][1,3,4]thiadiazol-6-yl)benzo[d]oxazole] | 6.63 |
| COc1cc(OCc2cccc(OCc3cc(F)c(F)c(F)c3)c2)c2cc(-c3cn4nc(OC)sc4n3)oc2c1 [Example 328] | 4.5 |
| COc1nn2cc(-c3nc4ccc(F)cc4s3)nc2s1 [Example 184, 6-Fluoro-2-(2-methoxyimidazo[2,1-b][1,3,4]thiadiazol-6-yl)benzo[d]thiazole] | 5.5 |
| COc1nn2cc(-c3cc4ccc(Cl)cc4o3)nc2s1 [Example 94] | 3.58 |
| COc1cc(OCc2cccc(OCc3ccc(OC)c(OC)c3)c2)c2cc(-c3cn4nc(OC)sc4n3)oc2c1 [Example 389] | 0.73 |
| CSc1nn2cc(-c3nc4cc(F)ccc4s3)nc2s1 [Example 182, 5-Fluoro-2-(2-(methylthio)imidazo[2,1-b][1,3,4]thiadiazol-6-yl)benzo[d]thiazole] | 19.4 |
